Laboratory results published in patent US9480278B2, “Diet for altering the nutrient composition of feeder insects” (Mark Finke LLC, priority 2012, dated 2016).
Where two headings read alike, the source gives them in different places. One block for each molecule: values may come before it.

Key:
[1] = Lutein and zeaxanthin in diet versus lutein and zeaxanthin in feeder insect; details: cricket, whole feeder insect (dry matter), oral
Experimental: (§1) An experiment was performed to determine the levels of lutein and zeaxanthin in a feeder insect diet that would produce lutein and zeaxanthin levels in a feeder insect similar to those found in the wild.

[2] = test system: feeder insects; test: as above; details: 64.9 mg/kg lutein in diet
Experimental: as §1

[3] = test system: feeder insects; test: Vitamin E level in feeder insects fed diets with varying levels of vitamin E; format: in vivo, crickets; details: approximately 21 days, fasted 24 to 36 hours
Experimental: Captive insectivores fed with current methods have been shown in past studies to be deficient in vitamin E. Feeder insects which contain between approximately 50 and approximately 200 International Units (“IU”) of vitamin E per kilogram dry matter provide health benefits to captive insectivores. All references in this disclosure to concentrations in feeder insects will be based on dry matter measurements, unless otherwise specified. Experiments were performed to determine the levels of vitamin E in a feeder insect diet that would produce in the feeder insect the targeted levels between 50 and 200 IU of vitamin E per kilogram dry matter for consumption by an insectivore. In the experiments, feeder insects were fasted for 24 to 36 hours prior to analysis to ensure that food in the gut was eliminated completely so as not to affect the results. The feeder insects were provided the diet containing varying levels of vitamin E. Vitamin E analysis was then performed using the method as described by Cort, et. al., Vitamin E Content of Feedstuffs Determined by High-Performance Liquid Chromatography Fluorescence, JOURNAL OF AGRICULTURAL AND FOOD CHEMISTRY, Vol. 31, 1330-1333 (1983).
There is a direct relationship between the vitamin E content in the diet and the vitamin E content in the feeder insect. Since the feeder insects were fasted prior to analysis, and the results were collected when the feeder insects were grown to approximately two-thirds of adult-size within approximately 21 days after introduction of the diet, the vitamin E content in the feeder insect is a result of a change in the composition of the tissues of the feeder insect, rather than the consequence of food in the gut of the feeder insect. Regression analysis was performed on the data to establish a best-fit line defined by an equation FI=0.241*D+33.5, where FI is the vitamin E content of feeder insect and D is the vitamin E content in the feeder insect diet. […]

[4] = test system: mealworms; test: Vitamin E content of mealworms fed a diet containing added vitamin E; format: in vivo
Experimental: There is a direct relationship between the vitamin E content in the diet and the vitamin E content in the feeder insect. Since the feeder insects were fasted prior to analysis, and the results were collected when the feeder insects were grown to approximately two-thirds of adult-size within approximately 21 days after introduction of the diet, the vitamin E content in the feeder insect is a result of a change in the composition of the tissues of the feeder insect, rather than the consequence of food in the gut of the feeder insect. Regression analysis was performed on the data to establish a best-fit line defined by an equation FI=0.241*D+33.5, where FI is the vitamin E content of feeder insect and D is the vitamin E content in the feeder insect diet. According to the present inventive method, with this established equation, a diet, fed to the feeder insect, having a vitamin E content of between approximately 69 and approximately 691 IU per kilogram produces the targeted 50 to 200 IU of vitamin E per kilogram dry matter in the feeder insect, respectively.

[5] = test system: feeder insects
[6] = in vivo; details: cricket
[7] = 3 milligrams of beta-carotene per kilogram of feeder insect diet
[8] = 65 milligrams of beta-carotene per kilogram of feeder insect diet

concentration at 21 days ([1]; 11.6 mg/kg diet): 33 ng/g
concentration at 21 days ([1]; 13.3 mg/kg diet): 333 ng/g
concentration at 21 days ([1]; 193.6 mg/kg diet): 11300 ng/g
Lutein in Feeder Insect [2]: 800 µg/kg dry matter
Molecule: CC1=C[C@H](O)CC(C)(C)[C@H]1/C=C/C(C)=C/C=C/C(C)=C/C=C/C=C(C)/C=C/C=C(C)/C=C/C1=C(C)C[C@@H](O)CC1(C)C [Lutein, lutein]

Vitamin E in Feeder Insect ([3]; 31 IU/kg vitamin E in diet): 38.7 IU/kg dry matter
Vitamin E in Feeder Insect ([3]; 210 IU/kg vitamin E in diet): 89.2 IU/kg dry matter
Vitamin E in Feeder Insect ([3]; 360 IU/kg vitamin E in diet): 117.7 IU/kg dry matter
vitamin E content compared with mealworms fed a control diet [4]: more vitamin E
Molecule: vitamin E

concentration at 21 days ([6]; 0.2 mg/kg diet, Beta-carotene in Feeder Insect, 0.2 mg/kg beta-carotene in diet): 33.3 ng/g
concentration at 21 days ([6]; 0.3 mg/kg diet, Beta-carotene in Feeder Insect, 0.3 mg/kg beta-carotene in diet): 33.3 ng/g
concentration at 21 days ([6]; 3 mg beta-carotene per kg diet, beta-carotene in feeder insect by regression FI=219.2×D-2.92, 3 milligrams of beta-carotene per kilogram of feeder insect diet): 655 ng/g
concentration at 21 days ([6]; 11.7 mg/kg diet, Beta-carotene in Feeder Insect, 11.7 mg/kg beta-carotene in diet): 2720 ng/g
concentration at 21 days ([6]; 15.3 mg/kg diet, Beta-carotene in Feeder Insect, 15.3 mg/kg beta-carotene in diet): 3230 ng/g
concentration at 21 days ([6]; 65 mg beta-carotene per kg diet, beta-carotene in feeder insect by regression FI=219.2×D-2.92, 65 milligrams of beta-carotene per kilogram of feeder insect diet): 14300 ng/g
concentration at 21 days ([6]; beta-carotene in feeder insect by regression from Table C, diet with approximately 0.3 to approximately 1,496.4 milligrams of beta-carotene per kilogram): 62.8 to 328000 ng/g
concentration at 21 days ([6]; beta-carotene in feeder insect by regression from Table C, diet with approximately 68.4 to approximately 365 milligrams of beta-carotene per kilogram): 15000 to 80000 ng/g
Molecule: CC1=C(/C=C/C(C)=C/C=C/C(C)=C/C=C/C=C(C)/C=C/C=C(C)/C=C/C2=C(C)CCCC2(C)C)C(C)(C)CCC1 [Beta-carotene, beta-carotene]
share of poultry's vitamin A requirement, by regression [5, 7]: approximately 78%
share of the rat's vitamin A requirement, by regression [5, 7]: approximately 51%
vitamin A yielded in feeder insect, by regression [5, 7]: 1,173 IU of vitamin A per kilogram dry matter
share of poultry's vitamin A requirement, by regression [5, 8]: approximately 1600%
share of the rat's vitamin A requirement, by regression [5, 8]: approximately 1000%
vitamin A yielded in feeder insect, by regression [5, 8]: 23,000 IU of vitamin A per kilogram dry matter
